The results in this text go back to article PMC5293833, “Mycobacterium tuberculosis Prolyl Oligopeptidase Induces In vitro Secretion of Proinflammatory Cytokines by Peritoneal Macrophages” (Frontiers in Microbiology, 2017).

Starred links: 1 amine or outer side, 2 acyl side, 3 side chain; linkers in the order of their positions; H or OH if unused. Residues, ends and D or L forms follow the SMILES beside them. *: point of attachment. AMC = Cc1cc(=O)oc2cc(N*)ccc12; Suc = O=C(CCC(=O)[*:2])[*:1]

Assay type in all cases: biochemical
Assay [1] concerns the target T1, prolyl oligopeptidase (POPMt) (Mycobacterium tuberculosis, UniProt O07178).
T1 construct: gene Rv0457c
The assay can be described thus: fluorogenic AMC substrate assay, % inhibition at […]. Conditions: 1000 µM.

Assay [2] addresses T1, prolyl oligopeptidase (POPMt).
For assay [3] the target is unchanged. Description: fluorogenic AMC substrate assay, % inhibition at […].

T1 sequence (O07178 entry or part of it): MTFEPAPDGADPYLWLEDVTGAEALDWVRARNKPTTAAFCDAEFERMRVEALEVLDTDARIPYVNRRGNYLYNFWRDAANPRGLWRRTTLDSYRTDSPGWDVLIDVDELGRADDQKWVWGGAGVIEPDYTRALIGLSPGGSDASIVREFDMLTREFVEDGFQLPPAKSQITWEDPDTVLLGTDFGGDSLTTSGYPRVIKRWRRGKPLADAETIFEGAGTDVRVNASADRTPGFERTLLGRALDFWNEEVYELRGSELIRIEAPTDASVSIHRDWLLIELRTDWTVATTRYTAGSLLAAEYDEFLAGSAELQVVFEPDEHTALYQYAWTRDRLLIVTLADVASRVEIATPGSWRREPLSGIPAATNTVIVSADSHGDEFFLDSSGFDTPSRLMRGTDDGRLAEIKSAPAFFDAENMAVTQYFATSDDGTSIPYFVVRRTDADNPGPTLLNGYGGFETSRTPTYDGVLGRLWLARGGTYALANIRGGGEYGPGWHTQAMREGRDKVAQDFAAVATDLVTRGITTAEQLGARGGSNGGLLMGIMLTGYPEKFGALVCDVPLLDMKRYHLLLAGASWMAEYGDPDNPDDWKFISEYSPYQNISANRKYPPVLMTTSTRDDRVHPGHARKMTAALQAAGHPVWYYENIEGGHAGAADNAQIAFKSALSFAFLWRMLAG

Regarding `NCCc1ccc(S(=O)(=O)F)cc1` [AEBSF], the “Inhibition (%)” value in assay [1] amounted to 33. For `Cc1cc(=O)oc2cc(NC(=O)[C@@H]3CCCN3C(=O)CNC(=O)CCC(=O)O)ccc12` [N-Suc-Gly-Pro-AMC] (Suc-Gly-Pro-{AMC}), the “Relative activity (%)” value in assay [2] worked out at 48 % relative activity. What is called inhibition is the drop in the measured response relative to a control, in per cent. The low end stands for a weak effect, the high end for a strong effect. Molecule `Cc1ccc(S(=O)(=O)N[C@@H](CCCCN)C(=O)CCl)cc1` [TLCK] had an inhibition at 100 µM in assay [3] of 35%. In assay [3], `Cc1ccc(S(=O)(=O)N[C@@H](Cc2ccccc2)C(=O)CCl)cc1` [TPCK] registered an inhibition at 100 µM of 66%.
